Experimental data published in US20160158200A1, “Combinations of Hepatitis C Virus Inhibitors” (priority 2013, published 2016).

System: HCV genotype-1a variant with glutamine 30 changed to glutamate in the NS5A protein
Assay type: cell-based
Details: test compound titrated with BMS-790052 fixed at 200 nM; genotype 1a Q30E replicon
Summary of the method: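 Synergy was assessed by combining several fixed amounts of an NS5A-targeting compound with a titration of the second compound of interest.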

Compound	Fold-Synergistic 1a (Q30E)
CC(C)[C@H](NC(=O)c1cnccn1)c1ncc(-c2ccc(-c3ccc(-c4cnc([C@@H](NC(=O)c5cnccn5)C(C)C)[nH]4)cc3)cc2)[nH]1 [Compound S-15]	>10 fold
CC(C)[C@H](NC(=O)c1cc(Cl)ccc1F)c1nc(-c2ccc(-c3ccc(-c4c[nH]c([C@@H](NC(=O)c5cc(Cl)ccc5F)C(C)C)n4)c(F)c3)cc2)c[nH]1.O=C(O)C(F)(F)F [Compound N-88]	>100 fold
CC(C)(C(=O)N[C@H](c1nc(-c2ccc(-c3ccc(-c4c[nH]c([C@@H](NC(=O)C(C)(C)C(O)c5ccccc5F)C(C)(C)C)n4)cc3)cc2)c[nH]1)C(C)(C)C)C(O)c1ccccc1F (single isomer, unassigned) [Compound N-124B]	>100 fold
CC(C)[C@H](NC(=O)c1ccc(C(F)(F)F)nc1)c1ncc(-c2ccc(-c3ccc(-c4cnc([C@@H](NC(=O)c5ccc(C(F)(F)F)nc5)C(C)C)[nH]4)cc3)cc2)[nH]1 [Compound S-103]	>100 fold
CC1(C(=O)NC(c2nc(-c3ccc(-c4ccc(-c5c[nH]c(C(NC(=O)C6(C)CCCCCO6)C(C)(C)C)n5)cc4)cc3)c[nH]2)C(C)(C)C)CCCCCO1 (centres unmarked) [Compound Y-91]	>100 fold
COc1ccccc1C(O)CC(=O)N[C@H](c1nc(-c2ccc(-c3ccc(-c4c[nH]c([C@@H](NC(=O)C5(C(O)c6ccccc6OC)CC5)C(C)(C)C)n4)cc3)cc2)c[nH]1)C(C)(C)C (single isomer, unassigned) [Compound N-135A]	>100 fold
COC(=O)NC(C(=O)NC(c1nc(-c2ccc(-c3ccc(-c4c[nH]c(C(NC(=O)C(NC(=O)OC)C5CC(C)OC(C)C5)C(C)(C)C)n4)cc3)cc2)c[nH]1)C(C)(C)C)C1CC(C)OC(C)C1 [Compound L-72]	>10 fold
CC(C)(C)[C@H](NC(=O)C(=O)N1CCCC1)c1nc(-c2ccc(-c3ccc(-c4c[nH]c([C@@H](NC(=O)C(=O)N5CCCC5)C(C)(C)C)n4)cc3)cc2)c[nH]1 [Compound W-21]	>100 fold
COC(C)(C)C(=O)N[C@H](c1nc(-c2ccc(-c3ccc(-c4c[nH]c([C@@H](NC(=O)C(C)(C)OC)C(C)C)n4)c(F)c3)cc2)c[nH]1)C(C)C.O=C(O)C(F)(F)F [Compound N-87]	>100 fold
CC(C)[C@H](NC(=O)c1cccc(Cl)c1)c1ncc(-c2ccc(-c3ccc(-c4cnc([C@@H](NC(=O)c5cccc(Cl)c5)C(C)(C)C)[nH]4)cc3)cc2)[nH]1 [Compound Y-46]	>100 fold
C[C@@H]1CN(C(=O)C(=O)N[C@H](c2nc(-c3ccc(-c4ccc(-c5c[nH]c([C@@H](NC(=O)C(=O)N6C[C@@H](C)O[C@@H](C)C6)C(C)(C)C)n5)cc4)cc3)c[nH]2)C(C)(C)C)C[C@H](C)O1 [Compound W-45]	>100 fold
CC(C)[C@H](NC(=O)C(C)(C)C)c1ncc(-c2ccc(-c3ccc(-c4cnc([C@@H](NC(=O)C(C)(C)C)C(C)(C)C)[nH]4)cc3)cc2)[nH]1 [Compound Y-41]	>100 fold
CC(C)(C)OC(=O)N1CC(F)(F)CC1(C)C(=O)N[C@H](c1nc(-c2ccc(-c3ccc(-c4c[nH]c([C@@H](NC(=O)C5(C)CC(F)(F)CN5C(=O)OC(C)(C)C)C(C)(C)C)n4)cc3)cc2)c[nH]1)C(C)(C)C (single isomer, unassigned) [Compound W-76]	>100 fold
CC(C)(C)[C@H](NC(=O)C1CCC(F)(F)CC1)c1ncc(-c2ccc([C@@H]3C[C@H]3c3ccc(-c4cnc([C@@H](NC(=O)C5CCC(F)(F)CC5)C(C)(C)C)[nH]4)cc3)cc2)[nH]1 [Compound B-190]	>100 fold
CC(C)[C@H](NC(=O)c1cccc(C(F)(F)F)c1)c1ncc(-c2ccc(-c3ccc(-c4cnc([C@@H](NC(=O)c5cccc(C(F)(F)F)c5)C(C)C)[nH]4)cc3)cc2)[nH]1 [Compound S-79]	>100 fold
CC(C)[C@H](NC(=O)c1c(F)cccc1F)c1ncc(-c2ccc(-c3ccc(-c4cnc([C@@H](NC(=O)c5c(F)cccc5F)C(C)C)[nH]4)cc3)cc2)[nH]1 [Compound S-64]	>100 fold
CC(C)[C@H](NC(=O)c1cnco1)c1ncc(-c2ccc(-c3ccc(-c4cnc([C@@H](NC(=O)c5cnco5)C(C)C)[nH]4)cc3)cc2)[nH]1 [Compound P-94]	>10 fold
CC(C)CC(=O)NC(c1nc(-c2ccc(-c3ccc(-c4cn(C)c(C(NC(=O)CC(C)C)C(C)C)n4)cc3)cc2)cn1C)C(C)C.O=C(O)C(F)(F)F.O=C(O)C(F)(F)F (centres unmarked) [Compound Y-18]	<10 fold
C[C@H]1CCN(C(=O)C(=O)N(C2CC2)C2CC2)C1c1nc(-c2ccc(-c3ccc(-c4c[nH]c(C5[C@@H](C)CCN5C(=O)C(=O)N(C5CC5)C5CC5)n4)cc3)cc2)c[nH]1 (some centres unmarked) [Compound W-244]	>100 fold
[2H]C([2H])([2H])C(=O)NC1(C(=O)N[C@H](c2nc(-c3ccc(-c4ccc(-c5c[nH]c([C@@H](NC(=O)C6(NC(=O)C([2H])([2H])[2H])CCCCC6)C(C)(C)C)n5)cc4)cc3)c[nH]2)C(C)(C)C)CCCCC1 [Compound W-272]	>100 fold
CC(C)(C)[C@H](NS(=O)(=O)C1(C)CC1)c1nc(-c2ccc(-c3ccc(-c4c[nH]c([C@@H](NS(=O)(=O)C5(C)CC5)C(C)(C)C)n4)cc3)cc2)c[nH]1 [Compound L-120]	>100 fold
Cc1cc(-c2ccc(-c3c[nH]c([C@@H](NC(=O)C(C)(C)C)C(C)C)n3)cc2)ccc1-c1c[nH]c([C@@H](NC(=O)C(C)(C)C)C(C)C)n1 [Compound N-77]	>100 fold
CC(C)[C@H](NC(=O)C(C)(C)O)c1ncc(-c2ccc(-c3ccc(-c4cnc([C@@H](NC(=O)C(C)(C)O)C(C)C)[nH]4)cc3)cc2)[nH]1 [Compound P-71]	>100 fold
COC(=O)N(C)[C@H](C(=O)N[C@H](c1ncc(-c2ccc(-c3ccc(-c4cnc([C@@H](NC(=O)[C@H](C(C)C)N(C)C(=O)OC)C(C)C)[nH]4)cc3)cc2)[nH]1)C(C)C)C(C)C [Compound P-107]	>100 fold
CC(C)[C@H](NC(=O)C(C)(C)n1cccn1)c1ncc(-c2ccc(-c3ccc(-c4cnc([C@@H](NC(=O)C(C)(C)n5cccn5)C(C)C)[nH]4)cc3)cc2)[nH]1 [Compound Y-25]	>100 fold
CC(O)C1(C(=O)N[C@H](c2nc(-c3ccc(-c4ccc(-c5c[nH]c([C@@H](NC(=O)C6(C(C)O)CCCCC6)C(C)(C)C)n5)cc4)cc3)c[nH]2)C(C)(C)C)CCCCC1 (single isomer, unassigned) [Compound N-152C]	>100 fold
Cc1cc(-c2ccc(-c3c[nH]c([C@@H](NC(=O)C4CC(F)(F)C4)C(C)C)n3)cc2)ccc1-c1c[nH]c([C@@H](NC(=O)C2CC(F)(F)C2)C(C)C)n1.O=C(O)C(F)(F)F [Compound N-78]	>100 fold
CC1([C@H](NC(=O)C(=O)N2CCCCCC2)c2nc(-c3ccc(-c4ccc(-c5c[nH]c([C@@H](NC(=O)C(=O)N6CCCCCC6)C6(C)CC6)n5)cc4)cc3)c[nH]2)CC1 [Compound W-57]	>100 fold
CN1CC(F)(F)C[C@H]1C(=O)N[C@H](c1nc(-c2ccc(-c3ccc(-c4c[nH]c([C@@H](NC(=O)[C@@H]5CC(F)(F)CN5C)C(C)(C)C)n4)cc3)cc2)c[nH]1)C(C)(C)C [Compound P-35]	>100 fold
